From US8206941B2, “Three part assay for kinase or phosphatase activity” (Hoffmann-La Roche Inc., priority 2005, dated 2012) come the findings set out here.

Molecules are shown by their SMILES.

The test deals with T1, PDHK2 (recombinant pyruvate dehydrogenase kinase 2) (Homo sapiens, UniProt Q15119).
T1 construct: made in house
Put plainly: Fast-TR FRET kinase IMAP assay, ATP dependence of the kinase reaction. Type of test: biochemical. As to conditions: 1 μM Alexa-peptide in the kinase reaction; concentration in the kinase reaction (50 times less in readout); FRET readout 730 (30) nm; FIG. 9; read-out: EC50 of ATP dose response curve. An excerpt: • Substrate peptide (YHGHSMSAPGVSTAC (SEQ ID NO: 1)) from Biosyntan labeled with Alexa Fluor 700 • Phosphorylated substrate peptide (YHGHS(H2PO4)MSAPGVSTAC (SEQ ID NO: 1)) from Biosyntan labeled with Alexa Fluor 700 and Ru(batho) 2bpy • Kinase enzyme: PDHK2 (recombinant pyruvate dehydrogenase kinase 2, expressed according to standard methods) • IMAP™ beads from Molecular Devices (IMAP™ Explorer Kit (IPP) Product # R8062) • Buffer: IMAP™ Binding Buffer 1:5 diluted with dest. H2O+0.05% BSA Instrumentation: • Zeiss plate::vision reader • Plate: Costar 384, UV-NBS • Excitation wavelength: 355 nm • Emission filter: 730 (30) nm, 615 (10) nm
1 μl of the PDHK2 enzyme was diluted in 11 μl kinase buffer (25 mM Hepes pH 7.4, 150 mM NaCl, 18.7 mM MgCl2, 0.4 mM NH4Ac, 0.025% Triton X-100, 1.87 mM DTT). […] For the readout the final substrate concentration was 20 nM (phosphorylated) Alexa-peptide and with the final ATP concentration of 2 μM the FRET signal should be easily detectable (FIG. 5). […]
Note that these were the concentrations in the kinase reaction, in the readout they were 50 times less. […] With higher ATP concentrations the signal decreased again due to free ATP in the readout mixture which bound to the IMAP™ beads and thus decreased the binding capacity of the IMAP™ beads. […]

For the molecule `Nc1ncnc2c1ncn2[C@@H]1O[C@H](COP(=O)(O)OP(=O)(O)OP(=O)(O)O)[C@@H](O)[C@H]1O` [ATP], the EC50 was determined as 3.6 µM.
